In patent publication US12286632B2, “Rationally-designed synthetic peptide shuttle agents for delivering polypeptide cargos from an extracellular space to the cytosol and/or nucleus of a target eukaryotic cell, uses thereof, methods and kits relating to same” (Feldan Bio Inc., priority 2016, dated 2025):
Ends that are not written are not given here.

What was measured:
[1] = test system: THP-1 cells; test: HOXB4-WT transduction: target gene mRNA by real-time PCR (Fold over control) and total RNA (ng/μL) as marker for cell viability; type: cell-based, human; settings: THP-1 cells; for Total RNA in ng/μL (mean ± St. Dev): peptide alone 1 μM, HOXB4-WT 0 μM, marker for cell viability
Protocol: Control and treated cells are transferred to separate sterile 1.5-mL tubes and centrifuged for 5 minutes at 300g. The cell pellets are resuspended in appropriate buffer to lyse the cells. RNAase-free 70% ethanol is then added followed by mixing by pipetting. The lysates are transferred to an RNeasy™ Mini spin column and centrifuged 30 seconds at 13000 RPM. After several washes with appropriate buffers and centrifugation steps, the eluates are collected in sterile 1.5-mL tubes on ice, and the RNA quantity in each tube is then quantified with a spectrophotometer. For DNase treatment, 2 μg of RNA is diluted in 15 μL of RNase-free water. 1.75 μL of 10X DNase buffer and 0.75 μL of DNase is then added, followed by incubation at 37° C. for 15 minutes. For reverse transcriptase treatment, 0.88 μL of EDTA […] is added, followed by incubation at 75° C. for 5 minutes. In a PCR tube, […] of DNase-treated RNA is mixed with 4 μL of iScript™ Reverse transcription Supermix (5X) and […] of nuclease-free water. The mix is incubated in a PCR machine with the following program: 5 min at 25° C., 30 min at 42° C. and 5 min at 85° C. Newly synthesized cDNA is transferred in sterile 1.5-mL tubes and diluted in 2 μL of nuclease-free water. 18 μL per well of a qPCR machine (CFX-96™) mix is then added in a PCR plate for analysis.
Briefly, THP-1 cells were plated at 30 000 cells/well one day before transduction. HOXB4-WT recombinant protein ([…]; Example 14.1) was co-incubated with different concentrations of His-CM18-PTD4 ([…]) and then exposed to THP-1 cells for 2.5 hours in the presence of serum. The cells were subjected to real time-PCR analysis as described in Example 14.2 to measure the mRNA levels of a target gene as a marker for HOXB4 activity, which was then normalized to the target gene mRNA levels detected in the negative control cells (no treatment), to obtain a “Fold over control” value. Total RNA levels (ng/μL) were also measured as a marker for cell viability.
Briefly, THP-1 cells were plated at 30 000 cells/well one day before the first time course experiment. HOXB4-WT recombinant protein (1.5 μM; Example 14.1) was co-incubated with His-CM18-PTD4 (0.8 μM) and then exposed to THP-1 cells for 0, 2.5, 4, 24 or 48 hours in presence of serum. The cells were subjected to real time-PCR analysis as described in Example 14.2 to measure mRNA levels of a target gene as a marker for HOXB4 activity, which was then normalized to the target gene mRNA levels detected in the negative control cells (no treatment), to obtain a “Fold over control” value. Total RNA levels (ng/μL) were also measured as a marker for cell viability.
Briefly, THP-1 cells were plated at 30 000 cells/well one day before the first time course experiment. HOXB4-WT recombinant protein (0.3 μM; Example 14.1) was co-incubated with His-CM18-PTD4 (0.8 μM) and then exposed to THP-1 cells for 0, 0.5, 1, 2, 2.5, 3 or 4 hours in presence of serum. The cells were subjected to real time-PCR analysis as described in Example 14.2 to measure mRNA levels of a target gene as a marker for HOXB4 activity, which was then normalized to target gene mRNA levels detected in the negative control cells (no treatment), to obtain a “Fold over control” value. Total RNA levels (ng/μL) were also measured as a marker for cell viability.
Briefly, THP-1 cells were plated at 30 000 cells/well one day before the first time course experiment. HOXB4-WT recombinant protein (1.5 μM; Example 14.1) co-incubated with the shuttle agents His-CM18-PTD4, TAT-KALA, EB1-PTD4, His-C(LLKK)3C-PTD4 and His-CM18-PTD4-His at 0.8 μM, and then exposed to THP-1 cells for 2.5 hours in presence of serum. The cells were subjected to real time-PCR analysis as described in Example 14.2 to measure mRNA levels of a target gene as a marker for HOXB4 activity, which was then normalized to target gene mRNA levels detected in the negative control cells (no treatment), to obtain a “Fold over control” value. […]

[2] = in vitro; settings: human, HeLa cells; for viability: Cell viability (%) (±St Dev.; n = 3)
[3] = in vitro; settings: human, THP-1 cells
[4] = in vitro; settings: human, HeLa cells
[5] = in vitro; settings: human, HCC-78 cells
[6] = in vitro; settings: human, NCI-H196 cells
[7] = test system: HeLa cells; settings: human, 10 s, 50 µM
[8] = test system: HeLa cells; test: Plasmid DNA (pEGFP-C1) transfection by peptides (% cells with GFP signal, cell viability); settings: DNA transfection in HeLa cells using peptides; pEGFP-C1 plasmid
[9] = Cell viability (%) (±St. Dev.; n = 3)

For HOXB4-WT alone, the “Fold over control (mean ± St. Dev)” value ([1]; HOXB4-WT alone 1.5 μM, no peptide, target gene mRNA by real time-PCR) was 2.5 ± 0.2.
For “KWKLARAFARAIKKLGGSGGGSYARALRRQARTG [FSD10 alone]”, the “Total RNA in ng/μL (mean ± St. Dev)” value [1] was 181 ± 10.7 ng/µL.
Work on “KWKLARAFARAIKKLGGSGGGSYARALRRQARTG [FSD10]” yielded a viability [2] of 79.8 ± 4.73%, a viability at 1 min, 8 µM [2, 9] of 83.4 ± 6.38% and a viability at 1 min, 10 µM [2, 9] of 79.8 ± 6.37%. For the same substance, the viability at 2 min, 5 µM [2, 9] was 55.6 ± 4.28%, the viability at 0.5 min, 2 µM [3] was 96.3 ± 2.16% and the viability at 1 min, 1 µM [3] was 93.5 ± 5.64%. The viability at 1 min, 2 µM [3] was 85.6 ± 5.22%, the viability at 0.025 h, 1 µM [3] was 78.4 ± 6.15% and the viability [4] was 72.4 ± 8.61%. It also gave a viability at 1 min, 8 µM [5] of 76.1 ± 6.19%, a viability at 1 min, 10 µM [5] of 63.1 ± 5.27% and a viability at 2 min, 5 µM [5] of 83.1 ± 5.99%. For the same substance, the viability at 1 min, 8 µM [6] was 81 ± 8.02%, the viability at 1 min, 10 µM [6] was 85.4 ± 7.66% and the viability at 2 min, 5 µM [6] was 83.2 ± 7.51%.
For KWKLARAFARAIKKLYARALRRQARTG [FSD12], the viability [2] was 67.8 ± 4.83%, the viability [4] was 58.6 ± 2.07% and the viability at 1 min, 8 µM [5] was 66.3 ± 6.03%. For the same substance, the viability at 1 min, 10 µM [5] was 46.5 ± 4.18%, the viability at 2 min, 5 µM [5] was 75.1 ± 6.31% and the viability at 1 min, 8 µM [6] was 71.9 ± 6.44%. The viability at 1 min, 10 µM [6] was 72.5 ± 6.29% and the viability at 2 min, 5 µM [6] was 76.5 ± 6.37%.
In the case of “LLKLWSRLLKLWTQGGSGGGSGRRLKAKRAKA [FSD18 alone]”, the “Total RNA in ng/μL (mean ± St. Dev)” value [1] is reported as 157 ± 3.9 ng/µL.
In the case of “RRLSYSRRRFWEAKLAKALAKALAKHLAKALAKALKACEA [SynB3-KALA]”, the “Cell viability (%) (±St. Dev.; n = 3)” value [7] is reported as 91.1 ± 0.82%.
For “RRRRRRRRRWEAKLAKALAKALAKHLAKALAKALKACEA [9Arg-KALA]”, the “Cell viability (%) (±St. Dev.; n = 3)” value [7] was 62.8 ± 5.11%.
For YARAAARQARA [PTD4, reference compound], the “Cell viability (%) (±St. Dev.; n = 3)” value [7] was 94 ± 4.5% and the viability [4] was 98.2 ± 0.69%.
In the case of “YGRKKRRQRRRCKKALLALALHHLAHLALHLALALKKA [TAT-LAH4]”, the viability [4] is reported as 96.2 ± 2.7% and the “Mean % cells with GFP signal (±St. Dev.; n = 3)” value [8] is reported as 0.15 ± 0.00%.
